For data set [1], the system named is atherosclerotic cells of the intima of human's aorta. Kind of data set: Intracellular cholesterol and lipid content in cultured atherosclerotic cells, in vitro model.
The conditions of data set [2]: cited from earlier work.
The test system of data set [3] is cultured atherosclerotic cells. Kind of data set: Inclusion of [3H] thymidine (proliferative activity) in cultured atherosclerotic cells. The data set is classed as cell-based, human. The method, then: For research on the impact of the original PPC and PPPC with the conditional name "Cellex" (hereinafter - Cellex, as a modifier and activator of biological reactions) on the level of reduction of the atherogenic potential of blood serum of patients having atherosclerosis according to the known method, a primary culture of subendothelial cells of the human's aorta was obtained from various sections of the intima of the thoracic aorta of men and women aged 40-65 years within 1.5-3 hours after sudden death, which differed by the degree of atherosclerotic disease, then it was treated by collagenase, and the cells were cultured.

The test system of data set [4] is primary culture of atherosclerotic cells. Description: Ex vivo model: volunteers' blood serum added to primary culture of atherosclerotic cells, intracellular cholesterol. The data set is classed as cell-based, human. The method, then: For the ex vivo model, blood was taken from volunteers immediately prior to Cellex intake and after the corresponding intervals after the intranasal intake (after 2, 4, and 6 hours for screening studies and assessment of the short-term effect, as well as after 4, 8, 12, and 24 hours for the assessment of duration of the effect).
Volunteers took PPC - Cellex at once in the form of an intranasal spray in complex with polynucleotides in the form of sodium salts of DNA - PPPC, 400 µg of a 0.1% solution (per total protein and DNA) - 2 injections of 200 µg in each nasal duct in the morning, the drug for comparison was Verapamil in the dose of 400 mg; the control group received intranasally 50 mM of glycine-phosphate buffer solution with the same pH (7.8) and with the same regimen. Blood was taken prior to drug or control intake (time "0") and 1, 2, 4, and 8 hours after the intake. Samples were prepared from the bloodserum, and serum samples were added to the primary culture of atherosclerotic cells. […] Consequently, starting from the 1 st hour after single intake of the claimed drug and from the 2nd hour after Verapamil intake, blood serum acquires antiatherosclerotic properties manifested in the contribution to reverse cholesterol transport from atherosclerotic cells. Antiatherosclerotic properties of serum are preserved for at least 12 hours after Verapamil intake and up to 18 hours after intake of the claimed drug. Table 5. Comparative table of the antiatherogenic action of Cellex and Verapamil in the ex vivo model.

The test system of data set [5] is cells extracted from normal or damaged sections of the intima of human's aorta. Description: Determination of the synthesis of collagen ([3H]-proline inclusion). Type of data set: cell-based. The settings on record: Verapamil 5 x 10^-5 M; control 2500 ± 102 dpm/103. As for the experimental part: Cells extracted from normal or damaged sections of the intima of human's aorta were incubated for 24 hours in the presence of 5 µCi/ml [3H]-proline. Upon completion of incubation, inclusion of marked proline into the culture medium fraction treated by collagenase was determined by the method of Peterkofsky and Diegelmann. Table 1. Influence of lipostabil, lovastatin and cellex on the cholesterol content in atherosclerotic cells of the intima of human's aorta in vitro.

The conditions of data set [6]: smoking people, 20 mg/day, 14 weeks; cited from earlier work.
For data set [7] the following is noted: guinea pigs, 12 weeks, cited from earlier work.
For data set [8] the following is noted: rabbits, 28 days, food with 1% cholesterol, 0.6 g of beta-carotene per 1 kg of food; cited from earlier work.
For data set [9] the following is noted: hypersensitive rats, 125-500 mg per 1 kg of food with cholesterol-rich food, 44 days; cited from earlier work.
For data set [10] the following is noted: rabbits, single peroral administration; cited from earlier work.
The mark [11] stands for this setting: long-term administration, daily dose of 3 g.

The structures appear in SMILES notation. Like-named read-outs stand apart in the source and are kept apart here.

`CC[C@H](C)C(=O)O[C@H]1C[C@@H](C)C=C2C=C[C@H](C)[C@H](CC[C@@H]3C[C@@H](O)CC(=O)O3)[C@H]21` [Lovastatin]: in data set [1] (concentration 10^-6 M, control 105 ± 11, average of three independent experiments), the “Content of intracellular cholesterol” value worked out at 110 ± 10 µg/mg.
For `N[C@H](Cc1cc(I)c(Oc2cc(I)c(O)c(I)c2)c(I)c1)C(=O)O` [D-thyroxine], the “reduction of the concentration of low-density lipoproteins” value in data set [2] (daily dose of 4-8 mg) was 20%.
Take `COc1ccc(CCN(C)CCCC(C#N)(c2ccc(OC)c(OC)c2)C(C)C)cc1OC` (centres unmarked) [Verapamil]: the “Inclusion of [3H] thymidine” value in [3] (Verapamil 10^-4 M) was 20 ± 2 % of control; in data set [3] (Verapamil 10^-5 M) it was 34 ± 2 % of control; in data set [3] (Verapamil 10^-6 M) it was 50 ± 2 % of control; in data set [3] (Verapamil 10^-7 M) it was 86 ± 7 % of control. Moreover, the Triglycerides in data set [1] (Verapamil 5 x 10^-5 M, control 12.1 ± 1.7 µg/105) was 76 ± 2 % of control. Further, the Free cholesterol in data set [1] (Verapamil 5 x 10^-5 M, control 46.8 ± 5.3 µg/105) was 90 ± 8 % of control. The Phospholipids in [1] (Verapamil 5 x 10^-5 M, control 71.4 ± 10.9 µg/105) is listed as 61 ± 8 % of control. The Total cholesterol is 61 ± 4 % of control in [1] (Verapamil 10^-5 M); 82 ± 8 % of control in data set [1] (Verapamil 10^-6 M); 104 ± 5 % of control in [1] (Verapamil 10^-7 M, control 57.4 ± 1.2 µg/105). Further, in [4] (after single intake), the “Antiatherosclerotic properties of serum are preserved” value is given as “at least 12 hours”. Further, in data set [4] (after single intake), the “blood serum acquires antiatherosclerotic properties, starting from” value was 2 h. In addition, the Intracellular cholesterol content in data set [4] (serum 1 hr after Verapamil 400 mg, control 221 ± 13 µg cholesterol per 1 mg cellular protein) is reported as 97 ± 10 % of control; in [4] (serum 2 hr after Verapamil 400 mg) it was 84 ± 6 % of control; in data set [4] (serum 4 hr after Verapamil 400 mg), 77 ± 8 % of control; in data set [4] (serum 8 hr after Verapamil 400 mg) it was 85 ± 4 % of control; in data set [4] (serum 12 hr after Verapamil 400 mg), 90 ± 6 % of control; in data set [4] (serum 18 hr after Verapamil 400 mg) it was 104 ± 4 % of control. For the same compound, in data set [5], the Synthesis of collagen is on record as 74 ± 5 % of control.
Consider `CC1=C(/C=C/C(C)=C/C=C/C(C)=C/C=C/C=C(C)/C=C/C=C(C)/C=C/C2=C(C)CCCC2(C)C)C(C)(C)CCC1` [beta-carotene], for which, in data set [6], the “beta-carotene level in blood serum increased” value is 15 times and the “level of lipoproteins in blood serum” value was “no visible effect was identified”. The “sizes of sclerotic clots in aorta” value in data set [7] (50 mg of beta-carotene/100 g of food) was “significant reduction”. Moreover, the “cholesterol and triglyceride levels in blood serum” value in data set [7] (daily 0.2% cholesterol and 15-30 mg of beta-carotene) is recorded as “no verifiable differences”. In data set [8], the “LDL resistance to oxidation” value was “no impact of beta-carotene on LDL resistance to oxidation was detected” and the “elasticity of endothelial vessels” value was “elasticity of endothelial vessels was preserved”. Further, the “cholesterol and triglyceride levels in blood serum” value in data set [9] is reported as “dose-dependent reduction”.
`O=C(O)c1cccnc1` [nicotinic acid]: in data set [2] (setting [11]), the “cholesterol level in blood serum lowered” value was 10% and the “triglycerides in blood serum lowered” value is reported as 20%.
For `CC(C)=CCC/C(C)=C/C=C/C(C)=C/C=C/C(C)=C/C=C/C=C(C)/C=C/C=C(C)/C=C/C=C(\C)CCC=C(C)C` [lycopene], in [10], the “return of blood serum concentration to the initial level” value is 24 h and the “time of maximum concentration in blood serum” value was 8 h.

(Values after EP3207939A2, “USE OF A PROTEIN/PEPTIDE COMPLEX FOR TREATING AND PREVENTING ATHEROSCLEROSIS, METHOD FOR TREATING AND PREVENTING ATHEROSCLEROSIS (VARIANTS)” (Diamondzlite Limited, priority 2014, dated 2016).)
